From patent publication US10619138B2, “Herbicide-resistant hydroxyphenylpyruvate dioxygenases” (BASF SE, priority 2013, dated 2020)
Values joined by “and” are separate entries in the source; they are usually repeats but may differ in a detail not shown here. Equal entries are not always repeated.

How the values were obtained:
Test in all cases: In vitro HPPD activity assay, tolerance index
Conditions in all cases: normalized on Arabidopsis wild-type HPPD
[1] = test system: Mucilaginibacter HPPD (SEQ ID NO: 28); format: biochemical, Mucilaginibacter paludis
Description: (§1) The activity assay for HPPD is based on the analysis of homogentisic acid by reversed phase HPLC.
(§2) The assay mixture can contain 150 mM potassium phosphate buffer pH 7.0, 50 mM L-ascorbic acid, 100 μM Catalase (Sigma-Aldrich), 1 μM FeSO4 and 0.2 units of purified HPPD enzyme in a total volume of 505 μl. 1 unit is defined as the amount of enzyme that is required to produce 1 nmol of HGA per minute at 20° C.
(§3) The reaction is allowed to proceed for 45 min at room temperature. The reaction is stopped by the addition of 50 μl of 4.5 M phosphoric acid. The sample is filtered using a […] pore size PVDF filtration device.
(§4) 5 μl of the cleared sample is analyzed on an UPLC HSS T3 column (particle size 1.8 μm, dimensions 2.1×50 mm; Waters) by isocratic elution using 90% 20 mM NaH2PO4 pH 2.2, 10% methanol (v/v).
(§5) HGA is detected electrochemically at 750 mV (mode: DC; polarity: positive) and quantified by integrating peak areas (Empower software; Waters).
(§6) Inhibitors are dissolved in DMSO (dimethylsulfoxide) to a concentration of 0.5 mM. From this stock solution serial five-fold dilutions are prepared in DMSO, which are used in the assay. The respective inhibitor solution accounts for 1% of the assay volume. Thus, final inhibitor concentrations range from 5 μM to 320 pM, respectively. Activities are normalized by setting the uninhibited enzyme activity to 100%. IC50 values are calculated using non-linear regression.
(§7) Using methods which are described in the above examples or well known in the art, purified, recombinant wildtype HPPD enzymes are characterized with respect to their kinetic properties and sensitivity towards HPPD inhibiting herbicides. Apparent michaelis constants (Km) and maximal reaction velocities (Vmax) are calculated by non-linear regression with the software GraphPad Prism 5 (GraphPad Software, La Jolla, USA) using a substrate inhibition model. […] Weighted means (by standard error) of Km and IC50 values are calculated from at least three independent experiments. The Cheng-Prusoff equation for competitive inhibition (Cheng, Y. C.; Prusoff, W. H. Biochem Pharmacol 1973, 22, 3099-3108) is used to calculate dissociation constants (Ki).
(§8) Field performance of the HPPD enzyme, which is used as a herbicide tolerance trait may depend not only on its lack of sensitivity towards HPPD inhibiting herbicides but also on its activity. To assess the potential performance of a herbicide tolerance trait a tolerance index (TI) is calculated using the following formula: […]
(§9) Easy comparison and ranking of each trait is enabled by normalizing tolerance indexes on Arabidopsis wild-type HPPD.

[2] = test system: Algoriphagus HPPD (SEQ ID NO: 22); format: biochemical, Algoriphagus machipongonensis
Description: as §1, §2, §3, §4, §5, §6, §7, §8, §9

[3] = test system: Pontibacter HPPD (SEQ ID NO: 16); format: biochemical, Pontibacter sp.
Description: as §1, §2, §3, §4, §5, §6, §7, §8, §9

[4] = test system: Acidobacterium HPPD (SEQ ID NO: 30); format: biochemical, Acidobacterium capsulatum
Description: as §1, §2, §3, §4, §5, §6, §7, §8, §9

[5] = test system: Nitritalea HPPD (SEQ ID NO: 14); format: biochemical, Nitritalea halalkaliphila
Description: as §1, §2, §3, §4, §5, §6, §7, §8, §9

[6] = test system: Herpetosiphon HPPD (SEQ ID NO: 26); format: biochemical, Herpetosiphon aurantiacus
Description: as §1, §2, §3, §4, §5, §6, §7, §8, §9

[7] = test system: Geodermatophilus HPPD (SEQ ID NO: 32); format: biochemical, Geodermatophilus obscurus
Description: as §1, §2, §3, §4, §5, §6, §7, §8, §9

[8] = test system: Scenedesmus HPPD (SEQ ID NO: 4); format: biochemical, Scenedesmus obliquus
Description: as §1, §2, §3, §4, §5, §6, §7, §8, §9

[9] = test system: Belliella HPPD (SEQ ID NO: 12); format: biochemical, Belliella baltica
Description: as §1, §2, §3, §4, §5, §6, §7, §8, §9

Compound | TI (normalized tolerance index) [1] | TI (normalized tolerance index) [2] | TI (normalized tolerance index) [3] | TI (normalized tolerance index) [4] | TI (normalized tolerance index) [5] | TI (normalized tolerance index) [6] | TI (normalized tolerance index) [7] | TI (normalized tolerance index) [8] | TI (normalized tolerance index) [9]
CN(c1c(Cl)ccc(C2=C(O)c3ncccc3C(C)(C)S2(=O)=O)c1Cl)S(C)(=O)=O [Inhibitor 4, N-[2,6-dichloro-3-(8-hydroxy-5,5-dimethyl-6,6-dioxo-thiopyrano[4,3-b]pyridin-7-yl)phenyl]-N-methyl-methanesulfonamide] | 13.5 | 132.5 | 16.4 | 64 and 64.3 | – | – | – | – | –
CS(=O)(=O)c1ccc(C(=O)C2C(=O)CCCC2=O)c([N+](=O)[O-])c1 [Inhibitor 2, 2-(4-methylsulfonyl-2-nitro-benzoyl)cyclohexane-1,3-dione] | 0.6 | – | 0.1 | 0.6 | 0 | 0.4 | 0.7 | 0.1 | 0.1
CSc1c(Cl)cc(F)c(C(=O)Nc2nnnn2C)c1Cl [Inhibitor 11, 2,4-dichloro-6-fluoro-3-methylsulfanyl-N-(1-methyltetrazol-5-yl)benzamide] | 0.2 | – | 0 | 0.1 | 0 | 0.2 | 0.2 | 0.3 | 0
